Assays:
Type in all cases: functional
Mus musculus [1] = organism: Mus musculus; test: Maximum reduction in plasma triglyceride levels in KKA mice at a dosage of 0.005% in diet
Mus musculus [2] = organism: Mus musculus; test: Maximum reduction in blood glucose levels in KKA mice at a dosage of 0.005% in diet
Mus musculus [3] = organism: Mus musculus; test: Maximum reduction in plasma triglyceride levels in KKA mice at a dosage of 0.001% in diet
Mus musculus [4] = organism: Mus musculus; test: Effective dose to reduce 25% of triglyceride levels in plasma
Mus musculus [5] = organism: Mus musculus; test: Effective dose to reduce 25% of glucose levels in blood
Mus musculus [6] = organism: Mus musculus; test: Maximum reduction in blood glucose levels in KKA mice at a dosage of 0.001% in diet
Mus musculus [7] = organism: Mus musculus; test: Compound was tested for maximum reduction in plasma triglyceride levels in KKA mice at a dosage of 0.005% in diet

Row | SMILES | Reduction (Mus musculus [1]) | Reduction (Mus musculus [2]) | Reduction (Mus musculus [3]) | ED25 (Mus musculus [4]) | ED25 (Mus musculus [5]; Mus musculus, Blood) | Reduction (Mus musculus [6]) | Reduction (Mus musculus [7]) | ED25 (Mus musculus [5])
1 | O=C1NC(=O)C(Cc2ccc(OCc3nc(-c4ccccc4)cs3)cc2)S1 (centres undefined) | 44% | 48% | – | – | – | – | – | –
2 | Cc1oc(-c2cccs2)nc1CCOc1ccc(CC2SC(=O)NC2=O)cc1 (centres undefined) | 72% | 51% | 41% | 0.3 mg/kg/day | 0.09 mg/kg/day | 50% | – | –
3 | Cc1oc(-c2ccccc2)nc1COc1ccc(CC2SC(=O)NC2=O)cc1 (centres undefined) | 44% | 21% | 17% | 5 mg/kg/day | 3 mg/kg/day | 23% | – | –
4 | O=C1NC(=O)/C(=C/c2ccc(OCCc3csc(-c4ccccc4)n3)cc2)S1 | 57% | 57% | 44% | 1.3 mg/kg/day | 0.6 mg/kg/day | 49% | – | –
5 | Cc1oc(C2CCCCC2)nc1C(O)COc1ccc(CC2SC(=O)NC2=O)cc1 (centres undefined) | 67% | 49% | – | – | – | – | – | –
6 | Cc1nc(CCOc2ccc(CC3SC(=O)NC3=O)cc2)cs1 (centres undefined) | 52% | 42% | 15% | 4 mg/kg/day | 4 mg/kg/day | 17% | – | –
7 | Cc1oc(-c2ccccc2)nc1C(O)COc1ccc(/C=C2\SC(=O)NC2=O)cc1 (centres undefined) | 60% | 56% | 54% | 0.3 mg/kg/day | 0.9 mg/kg/day | 36% | – | –
8 | Cc1oc(-c2ccc(O)cc2)nc1CCOc1ccc(CC2SC(=O)NC2=O)cc1 (centres undefined) | – | – | 26% | – | – | 22% | – | –
9 | O=C1NC(=O)C(Cc2ccc(OCc3nc4ccccc4s3)cc2)S1 (centres undefined) | 43% | 43% | – | – | – | – | – | –
10 | CC(C)c1nc(CCOc2ccc(CC3SC(=O)NC3=O)cc2)cs1 (centres undefined) | 45% | 56% | – | – | – | – | – | –
11 | Cc1nc(CCOc2ccc(CC3SC(=O)NC3=O)cc2)oc1-c1ccccc1 (centres undefined) | 7% | 18% | – | – | – | – | – | –
12 | Cc1oc(C2(C)CCCCC2)nc1CCOc1ccc(/C=C2\SC(=O)NC2=O)cc1 | 9% | 24% | – | – | – | – | – | –
13 | CSc1cccc(-c2nc(CCOc3ccc(/C=C4\SC(=O)NC4=O)cc3)c(C)o2)c1 | 58% | 52% | – | – | – | – | – | –
14 | O=C1NC(=O)C(Cc2ccc(OCCc3nc(-c4ccccc4)oc3CO)cc2)S1 (centres undefined) | 39% | 31% | – | – | – | – | – | –
15 | Cc1oc(-c2ccco2)nc1COc1ccc(CC2SC(=O)NC2=O)cc1 (centres undefined) | 35% | 43% | – | – | – | – | – | –
16 | Cc1oc(-c2ccccc2)nc1C(=O)COc1ccc(CC2SC(=O)NC2=O)cc1 (centres undefined) | 67% | 52% | – | – | – | – | – | –
17 | CCCc1nc(COc2ccc(CC3SC(=O)NC3=O)cc2)co1 (centres undefined) | 29% | 12% | – | – | – | – | – | –
18 | O=C1NC(=O)C(Cc2ccc(OCc3csc(-c4ccccc4)n3)cc2)S1 (centres undefined) | – | 28% | 3% | 8 mg/kg/day | 6 mg/kg/day | 11% | 32% | –
19 | Cc1nc(COc2ccc(CC3SC(=O)NC3=O)cc2)co1 (centres undefined) | 1% | – | – | – | – | 19% | – | –
20 | Cc1oc(C2CCCCC2)nc1CCOc1ccc(CC2SC(=O)NC2=O)cc1 (centres undefined) | 71% | 52% | 58% | 0.6 mg/kg/day | 0.2 mg/kg/day | 51% | – | –

Row | SMILES | Reduction (Mus musculus [1]) | Reduction (Mus musculus [2]) | Reduction (Mus musculus [3]) | ED25 (Mus musculus [4]) | ED25 (Mus musculus [5]; Mus musculus, Blood) | Reduction (Mus musculus [6]) | Reduction (Mus musculus [7]) | ED25 (Mus musculus [5])
21 | CCc1oc(-c2ccccc2)nc1CCOc1ccc(CC2SC(=O)NC2=O)cc1 (centres undefined) | 79% | 55% | 55% | 0.6 mg/kg/day | 0.3 mg/kg/day | 49% | – | –
22 | Cc1oc(-c2ccccc2)nc1C(=O)COc1ccc(/C=C2\SC(=O)NC2=O)cc1 | 51% | 45% | – | – | – | – | – | –
23 | O=C1NC(=O)C(Cc2ccc(OCCc3coc(C4CCCCC4)n3)cc2)S1 (centres undefined) | – | – | 14% | 9 mg/kg/day | 1 mg/kg/day | 31% | – | –
24 | Cc1oc(-c2ccccc2)nc1CCOc1ccc(CC2SC(=O)NC2=O)cc1 (centres undefined) | 66% | 59% | 67% | 0.09 mg/kg/day | 0.05 mg/kg/day | 55% | – | –
25 | Cc1nc(C(O)COc2ccc(CC3SC(=O)NC3=O)cc2)c(C)o1 (centres undefined) | 62% | 51% | 52% | 0.5 mg/kg/day | 0.2 mg/kg/day | 55% | – | –
26 | Cc1nc(C(=O)COc2ccc(CC3SC(=O)NC3=O)cc2)c(C)o1 (centres undefined) | 27% | 39% | – | – | – | – | – | –
27 | Cc1nc(CCOc2ccc(CC3SC(=O)NC3=O)cc2)co1 (centres undefined) | 42% | 37% | 20% | 3 mg/kg/day | – | 13% | – | 5 mg/kg/day
28 | CCCc1nc(CCOc2ccc(CC3SC(=O)NC3=O)cc2)co1 (centres undefined) | 65% | 52% | 26% | 2 mg/kg/day | 2 mg/kg/day | 29% | – | –
29 | O=C1NC(=O)C(Cc2ccc(OCCc3csc(C4CCCCC4)n3)cc2)S1 (centres undefined) | – | – | 33% | 3 mg/kg/day | 0.8 mg/kg/day | 43% | – | –
30 | Cc1oc(-c2ccc(Cl)cc2)nc1CCOc1ccc(/C=C2\SC(=O)NC2=O)cc1 | 58% | 54% | – | – | – | – | – | –
31 | Cc1oc(-c2ccccc2)nc1CCCOc1ccc(CC2SC(=O)NC2=O)cc1 (centres undefined) | 29% | 21% | – | – | – | – | – | –
32 | CSc1cccc(-c2nc(CCOc3ccc(CC4SC(=O)NC4=O)cc3)c(C)o2)c1 (centres undefined) | 67% | 52% | – | – | – | – | – | –
33 | CCc1nc(CCOc2ccc(CC3SC(=O)NC3=O)cc2)cs1 (centres undefined) | 37% | 55% | – | – | – | – | – | –
34 | Cc1oc(-c2ccccc2)nc1COc1ccc(/C=C2\SC(=O)NC2=O)cc1 | 40% | 37% | – | – | – | – | – | –
35 | Cc1oc(-c2ccccc2Cl)nc1CCOc1ccc(CC2SC(=O)NC2=O)cc1 (centres undefined) | – | – | 57% | – | – | 52% | – | –
36 | Cc1oc(CCOc2ccc(CC3SC(=O)NC3=O)cc2)nc1CC(C)C (centres undefined) | 43% | 53% | – | – | – | – | – | –
37 | CCc1oc(CCOc2ccc(CC3SC(=O)NC3=O)cc2)nc1-c1ccccc1 (centres undefined) | 51% | 46% | – | – | – | – | – | –
38 | Cc1oc(CCOc2ccc(CC3SC(=O)NC3=O)cc2)nc1C1CCCCC1 (centres undefined) | 51% | 54% | – | – | – | – | – | –
39 | Cc1nc(COc2ccc(CC3SC(=O)NC3=O)cc2)cs1 (centres undefined) | 30% | 19% | – | – | – | – | – | –
40 | Cc1oc(-c2ccccc2)nc1C(O)COc1ccc(CC2SC(=O)NC2=O)cc1 (centres undefined) | 81% | 58% | 62% | 0.1 mg/kg/day | 0.05 mg/kg/day | 54% | – | –

Row | SMILES | Reduction (Mus musculus [1]) | Reduction (Mus musculus [2]) | Reduction (Mus musculus [3]) | ED25 (Mus musculus [4]) | ED25 (Mus musculus [5]; Mus musculus, Blood) | Reduction (Mus musculus [6]) | Reduction (Mus musculus [7]) | ED25 (Mus musculus [5])
41 | O=C1NC(=O)C(Cc2ccc(OCCc3csc(-c4ccccc4)n3)cc2)S1 (centres undefined) | 63% | 52% | 54% | 0.3 mg/kg/day | 0.5 mg/kg/day | 39% | – | –
42 | Cc1oc(CCOc2ccc(CC3SC(=O)NC3=O)cc2)nc1-c1ccccc1 (centres undefined) | 60% | 54% | – | – | – | – | – | –
43 | COc1ccc(-c2nc(CCOc3ccc(CC4SC(=O)NC4=O)cc3)c(C)o2)cc1 (centres undefined) | 72% | 55% | 63% | 0.6 mg/kg/day | 0.3 mg/kg/day | 53% | – | –
44 | Cc1nc(C(O)COc2ccc(/C=C3\SC(=O)NC3=O)cc2)c(C)o1 (centres undefined) | 61% | 59% | 37% | 0.8 mg/kg/day | 2.2 mg/kg/day | 26% | – | –
45 | Cc1cccc(-c2nc(CCOc3ccc(CC4SC(=O)NC4=O)cc3)c(C)o2)c1 (centres undefined) | – | – | 61% | 0.06 mg/kg/day | 0.05 mg/kg/day | 49% | – | –
46 | CCc1oc(C)nc1CCOc1ccc(CC2SC(=O)NC2=O)cc1 (centres undefined) | 45% | 46% | 0% | 5 mg/kg/day | 3 mg/kg/day | 15% | – | –
47 | Cc1oc(-c2cccs2)nc1CCOc1ccc(/C=C2\SC(=O)NC2=O)cc1 | 57% | 55% | – | – | – | – | – | –
48 | Cc1nc(CCOc2ccc(CC3SC(=O)NC3=O)cc2)c(C)o1 (centres undefined) | 56% | 55% | 10% | 3 mg/kg/day | 2 mg/kg/day | 27% | – | –
49 | Cc1oc(-c2ccccc2)nc1CCOc1ccc(/C=C2\SC(=O)NC2=O)cc1 | – | – | 65% | 0.2 mg/kg/day | 0.4 mg/kg/day | 55% | – | –
50 | Cc1scnc1CCOc1ccc(CC2SC(=O)NC2=O)cc1 (centres undefined) | 45% | 52% | – | – | – | – | – | –
51 | O=C1NC(=O)C(Cc2ccc(OCc3coc(-c4ccccc4)n3)cc2)S1 (centres undefined) | 51% | 48% | 12% | 4 mg/kg/day | 3 mg/kg/day | 16% | – | –
52 | Cc1nc(C(=O)COc2ccc(/C=C3\SC(=O)NC3=O)cc2)c(C)o1 | 29% | 33% | – | – | – | – | – | –
53 | CCc1oc(-c2ccccc2)nc1CCOc1ccc(/C=C2\SC(=O)NC2=O)cc1 | 59% | 54% | – | – | – | – | – | –
54 | O=C1NC(=O)C(Cc2ccc(OCc3csc(-c4cccnc4)n3)cc2)S1 (centres undefined) | 30% | 25% | – | – | – | – | – | –
55 | Cc1nc(CCOc2ccc(/C=C3\SC(=O)NC3=O)cc2)cs1 | 5% | 34% | – | – | – | – | – | –
56 | COc1ccc(-c2nc(CCOc3ccc(CC4SC(=O)NC4=O)cc3)c(C)o2)cc1OC (centres undefined) | – | – | 54% | 0.6 mg/kg/day | 0.5 mg/kg/day | 52% | – | –
57 | O=C1NC(=O)C(Cc2ccc(OCc3nc4ccccc4o3)cc2)S1 (centres undefined) | 24% | 35% | – | – | – | – | – | –
58 | CC1(COc2ccc(CC3SC(=O)NC3=O)cc2)CCCCC1 (centres undefined) [CIGLITAZONE] | – | – | – | 25 mg/kg/day | 31 mg/kg/day | – | – | –
59 | CCc1ccc(CCOc2ccc(CC3SC(=O)NC3=O)cc2)nc1.Cl (centres undefined) [PIOGLITAZONE HYDROCHLORIDE] | – | – | – | 6 mg/kg/day | 6 mg/kg/day | – | – | –

Source: ChEMBL document CHEMBL1125480, “Studies on antidiabetic agents. 11. Novel thiazolidinedione derivatives as potent hypoglycemic and hypolipidemic agents” (1992)
